Experimental data as given in patent US20240226285A9, “IMMUNOSTIMULATORY COMPOSITIONS” (Bayer Animal Health GmbH, priority 2020, published 2024).

How the values were obtained:
IRF pathway = assay: Interferon regulatory factor (IRF) pathway readout (Lucia luciferase, QUANTI-Luc) in J774-Dual reporter cell line; format: cell-based, murine; settings: ODN complexed with liposomes comprising DOTAP+DOPE, DOTMA+DOPE or DDA+DOPE; 40 μM liposomal lipids, 1.85 μg/mL ODN; J774-DUAL cells, 48 h
Protocol: (§1) J774-DUAL™ cells (InvivoGen, murine NF-kB & IRF Reporter macrophage-like cells) were grown in Dulbecco's minimum essential medium (DMEM) with high D-glucose content, 1 mM sodium pyruvate and 4 mM stable glutamine. DMEM was supplemented with 10% FBS, 50 μg/mL streptomycin, 50 U/mL penicillin G and 100 μg/mL Normocin™. Every other week, the culture medium was additionally supplemented with 200 μg/mL Zeocin™ and 20 μg/mL Blasticidin.
(§2) For experimental series, serum free DMEM without phenol red was prepared containing 1 mM sodium pyruvate, 4 mM L-glutamine, 50 μg/mL streptomycin, 50 U/mL penicillin G, 100 μg/mL Normocin™, 200 μg/mL Zeocin™ and 20 μg/mL Blasticidin. J774-DUAL™ cell line was split once per week with a splitting ratio of 1:4.
J774-DUAL™ cells were cultivated in a Heracell™ 150 incubator (Thermo Scientific) at 37° C. with 5% C02 and 95% humidified air. For seeding, cells were counted using a Neubauer bright line hemocytometer (Marienfeld) with a volume 0.1 mm^3. Cell lines were regularly checked for absence of mycoplasmic contamination. […]
J774-Dual™ cells also express the Lucia luciferase gene under the control of the IRF pathway. […] By using QUANTI-Luc™ reagent, a semi-quantitative analysis of IRF activation is thus possible (Invivogen product information (“J774-Dual Cells|NF-κB & IRF/IFN Reporter Macrophage” n.d., 774).
Cells were seeded with a density of 1×10^5 cells per well into 96-well microplates and given 24 h for adherence. […] After 48 h of incubations, 50 μL supernatant of each sample were transferred into 96-well microplates (OptiPlate™-96 HS, Perkin Elmer) and analyzed using QUANTI-Luc™ luminescence assay according to the manufacturer's instructions.
QUANTI-Luc™ reagent was dissolved in 25 mL endotoxin-free water, and 50 μL were added to each well containing samples, controls or calibration standards. Luminescence was immediately determined using EnSpire® multimode plate reader (Perkin Elmer) and measured as relative light units (RLU). […]

NF-κB pathway = assay: NF-κB dependent pathway readout (SEAP, pNPP assay) in J774-Dual reporter cell line; format: cell-based, murine; settings: for activation of the NF-κB pathway (SEAP levels) compared to untreated J774-DUAL / activation of the NF-κB pathway (increase of SEAP levels in supernatant, normalized to protein content): J774-DUAL cells, 48 h; for activation of the NF-κB pathway (increase of SEAP levels in supernatant, normalized to protein content): FIG. 1, class C ODN, oligonucleotide-liposome complexes, 1.85 μg/mL oligonucleotide
Protocol: as §1, §2
J774-DUAL™ cells were cultivated in a Heracell™ 150 incubator (Thermo Scientific) at 37° C. with 5% C02 and 95% humidified air. For seeding, cells were counted using a Neubauer bright line hemocytometer (Marienfeld) with a volume 0.1 mm^3. Cell lines were regularly checked for absence of mycoplasmic contamination.
J774-Dual™ is a reporter cell line provided by Invivogen, which enables the simultaneous investigation of signal transduction resulting in the activation of the NF-κB and/or the IRF pathway.
J774-Dual™ cells express secreted embryonic alkaline phosphatase (SEAP) under the control of the NF-κB pathway. SEAP is secreted into the cell culture supernatant. Thus, a semi-quantitative analysis of NF-κB activation is possible (Invivogen product information (“J774-Dual Cells|NF-κB & IRF/IFN Reporter Macrophage” n.d., 774)). p-Nitrophenyl phosphate (pNPP) is a widely utilized chromogenic chemical for rapid determination of alkaline phosphatase activity. In the presence of alkaline phosphatase the substance is hydrolyzed into phosphate and the yellow para-Nitrophenol which can be measured spectrophotometrically (Bessey, Otto A., O. H. Lowky, and Mary Jane Brock. “A method for the rapid determination of alkaline phosphatase with five cubic millimeters of serum.” Journal of Biological Chemistry 164 (1946): 321-329.).
Cells were seeded with a density of 1×10^5 cells per well into 96-well microplates and given 24 h for adherence. The culture medium was removed and the cells were incubated with either naked CpG nucleic acids, liposomes or liposome-nucleic acid complexes in serum-free medium at 37° C. with 5% CO2 and 95% humidified air (Heracell™ 150, Thermo Scientific). Liposome with a LC20>40 μM were included in the experimental series. After 48 h of incubation 100 μL supernatant of each sample were transferred into 96-well microplates (SpectraPlate™-96 TC, Perkin Elmer) and analyzed spectrophotometrically using a p-Nitrophenyl phosphate assay.
To this end, 100 μL pNPP working reagent consisting of 20 mM pNPP in 50 mM NaHCO3 buffer (pH 9.6) were added to each well containing samples, controls or calibration standards. After the incubation of the mixture at 37° C. for 1 h, absorbance was determined using Victor3™ V multimode plate reader (Perkin Elmer) equipped with a 405 nm absorbance filter. Lipopolysaccharide from Salmonella anterica serotype Minnesota was applied as calibration standard to determine the linear range of the assay and as positive control. All experiments were conducted in triplicate.
Raw data was normalized to 10 μg/mL protein content and the average value of the untreated control was subtracted.

## ODN 1668: class B immunostimulatory CpG oligonucleotide, SEQ ID NO. 3 (DNA TCCATGACGTTCCTGATGCT; listed as DNA, chemistry not given here)
IRF pathway
  activation of the IRF pathway (increase of luciferase levels in supernatant, normalized to protein content): potent IRF pathway activation was observed
NF-κB pathway; FIG. 3, ODN complexed with liposomes, 40 μM liposomal lipids, 1.85 μg/mL ODN
  activation of the NF-κB pathway (SEAP levels) compared to untreated J774-DUAL: increased NF-κB pathway activation
NF-κB pathway; FIG. 3, all liposome complexes except those with liposomes comprising DOTMA+DOPE, 40 μM lipids, 1.85 μg/mL ODN
  immunostimulatory potency (NF-κB pathway) of complexes compared to the uncomplexed ODN: not significantly improved
NF-κB pathway; FIG. 3, uncomplexed (naked) ODN 1.85 μg/mL
  activation of the NF-κB pathway (SEAP levels) compared to untreated J774-DUAL: increased NF-κB pathway activation

## ODN 2395: class C immunostimulatory CpG oligonucleotide, SEQ ID NO. 1 (TCGTCGTTTTCGGCGCGCGCCG; listed as DNA, chemistry not given here)
IRF pathway
  activation of the IRF pathway (increase of luciferase levels in supernatant, normalized to protein content): potent IRF pathway activation was observed
NF-κB pathway; 40 μM liposomal lipids
  activation of the NF-κB pathway (increase of SEAP levels in supernatant, normalized to protein content): potent NF-κB pathway activation was not observed

## ODN M362: class C immunostimulatory CpG oligonucleotide, SEQ ID NO. 2 (TCGTCGTCGTTCGAACGACGTTGAT; listed as DNA, chemistry not given here)
IRF pathway
  activation of the IRF pathway (increase of luciferase levels in supernatant, normalized to protein content): potent IRF pathway activation was observed
NF-κB pathway; 40 μM liposomal lipids
  activation of the NF-κB pathway (increase of SEAP levels in supernatant, normalized to protein content): potent NF-κB pathway activation was not observed
